Results: patent US6359144B1, “Combinatorial libraries of bicyclic guanidine derivatives and compounds therein” (Lion Bioscience AG, priority 1997, dated 2002)
Read-outs that look alike come from different tables or passages of the source.

What was measured:
σ receptor = target: T1, σ receptor (Rattus norvegicus, UniProt Q9R0C9); test: σ receptor radio-receptor binding assay
T1 construct: can be performed with particulate membranes prepared using a modification of the method described in Pasternak et al; tissue Rockland (Gilbertsville, Pa.); host or cells: rat brain minus cerebellum, crude particulate membranes
From the text: Additionally, such compounds can be tested in a σ receptor assay. Ligands for the σ receptor can be useful as antipsychotic agents, as described in Abou-Gharbia et al., Annual Reports in Medicinal Chemistry, 28:1-10 (1993).
Radio-receptor assays, such as those whose results are shown in Examples IV, V and VI, below, can be performed with particulate membranes prepared using a modification of the method described in Pasternak et al., Mol. Pharmacol. 11:340-351 (1975), which is incorporated herein by reference. Rat brains frozen in liquid nitrogen can be obtained from Rockland (Gilbertsville, Pa.). The brains are thawed, the cerebella removed and the remaining tissue weighed. Each brain is individually homogenized in 40 ml Tris-HCl buffer (50 mM, pH 7.4, 4° C.) and centrifuged (Sorvall® RC5C SA-600: Du Pont, Wilmington, Del.) (16,000 rpm) for 10 minutes. The pellets are resuspended in fresh Tris-HCl buffer and incubated at 37° C. for 40 minutes. Following incubation, the suspensions are centrifuged as before, the resulting pellets resuspended in 100 volumes of Tris buffer and the suspensions combined. Membrane suspensions are prepared and used in the same day.
Binding assays are carried out in polypropylene tubes, each tube containing 0.5 ml of membrane suspension. 8 nM of ^3H-[D-Ala^2,Me-Phe^4,Gly-ol^5]enkephalin (DAMGO) (specific activity=36 Ci/mmol, 160,000 cpm per tube; which can be obtained from Multiple Peptide Systems, San Diego, Calif., through NIDA drug distribution program 271-90-7302) and 80 μg/ml of bicyclic guanidine, individual or as a mixture and Tris-HCl buffer in a total volume of 0.65 ml. Assay tubes are incubated for 60 mins. at 25° C. The reaction is terminated by filtration through GF-B filters on a Tomtec harvester (Orange, Conn.). The filters are subsequently washed with 6 ml of Tris-HCl buffer, 4° C. Bound radioactivity is counted on a Pharmacia Biotech Betaplate Liquid Scintillation Counter (Piscataway, N.J.) and expressed in cpm. To determine inter- and intra-assay variation, standard curves in which ^3H-DAMGO is incubated in the presence of a range of concentrations of unlabeled DAMGO (0.13-3900 nM) are generally included in each plate of each assay (a 96-well format). Competitive inhibition assays are performed as above using serial dilutions of the bicyclic guanidines, individually or in mixtures.
As opposed to this μ receptor selective assay, which can be carried out using ^3H-DAMGO as radioligand, as described above, assays selective for κ receptors can be carried out using [^3H]-U69,593 (3 nM, specific activity 62 Ci/mmol) as radioligand. Assays selective for δ opiate receptors can be carried out using tritiated DSLET ([D-Ser^2, D-Leu^5]-threonine-enkephalin) as radioligand. Assays selective for the σ opiate receptor can use radiolabeled pentazocine as ligand.

κ-opioid receptor = target: T2, κ-opioid receptor (Rattus norvegicus, UniProt P34975); test: κ-opioid receptor radio-receptor binding assay ([3H]-U69,593); details: Table 9
T2 construct: can be performed with particulate membranes prepared using a modification of the method described in Pasternak et al; tissue Rockland (Gilbertsville, Pa.); host or cells: rat brain minus cerebellum, crude particulate membranes

[1] = 17 additional individual compounds, Table 11
[2] = 24 individual compounds, Table 10
[3] = 24 individual compounds, read-out: IC50

T2 sequence (P34975 whole entry): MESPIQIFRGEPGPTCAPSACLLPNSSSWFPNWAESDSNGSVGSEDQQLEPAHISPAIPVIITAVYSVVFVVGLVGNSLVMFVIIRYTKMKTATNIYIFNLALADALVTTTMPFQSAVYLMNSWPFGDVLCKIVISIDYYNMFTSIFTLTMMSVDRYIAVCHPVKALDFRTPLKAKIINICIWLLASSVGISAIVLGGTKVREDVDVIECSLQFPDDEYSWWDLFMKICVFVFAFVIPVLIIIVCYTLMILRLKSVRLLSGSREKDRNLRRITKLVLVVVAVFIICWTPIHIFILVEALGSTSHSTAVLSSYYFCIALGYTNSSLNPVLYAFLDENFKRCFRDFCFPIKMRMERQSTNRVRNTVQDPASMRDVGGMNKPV
T1 sequence (Q9R0C9 whole entry): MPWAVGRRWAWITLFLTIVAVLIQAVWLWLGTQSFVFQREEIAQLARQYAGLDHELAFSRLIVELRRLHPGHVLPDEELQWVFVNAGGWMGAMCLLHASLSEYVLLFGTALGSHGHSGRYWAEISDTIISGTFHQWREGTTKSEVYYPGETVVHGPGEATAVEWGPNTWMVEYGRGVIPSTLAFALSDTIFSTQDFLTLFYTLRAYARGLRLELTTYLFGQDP

SMILES	IC50 (σ receptor; [1])	IC50 (σ receptor; [2])	other results
CCCC[C@H]1CN=C2N(CC)[C@@H](Cc3ccccc3)CN21 [Nle/Phe/acetic acid]	0.214 µM	–	–
CCN1C2=NCC(Cc3ccccc3)N2CC1CC1CCCCC1 (stereo not drawn) [Phe/Cha/acetic acid]	0.052 µM	–	–
CC(C)(C)CCN1C2=NC[C@H](Cc3ccccc3)N2C[C@@H]1Cc1ccccc1 [Phe/Phe/(tert-butyl)acetic acid]	0.112 µM	–	–
CC(C)CCN1C2=NC[C@H](Cc3ccccc3)N2C[C@@H]1Cc1ccccc1 [Phe/Phe/isovaleric acid]	0.156 µM	–	–
CCN1C2=NC[C@H](Cc3ccccc3)N2C[C@@H]1Cc1ccc(OC)cc1 [Phe/Tyr(Me)/acetic acid]	0.069 µM	–	–
CCN1C2=NC[C@H](Cc3ccccc3)N2C[C@H]1C1CCCCC1 [Phe/chg/acetic acid]	0.119 µM	–	–
CCN1C2=NCC(Cc3ccccc3)N2CC1Cc1ccc(Cl)cc1 (stereo not drawn) [Phe/pCl-Phe/acetic acid]	0.06 µM	–	–
COc1ccc(C[C@H]2CN3C(=NC[C@H]3C3CCCCC3)N2CCCC2CCCCC2)cc1 [compound 2]	–	0.585 µM	–
COc1ccc(C[C@H]2CN3C(=NC[C@@H]3C3CCCCC3)N2CCCC2CCCCC2)cc1 [compound 3]	–	0.023 µM	–
COc1ccc(C[C@H]2CN3C(=NC[C@@H]3C)N2CCCC2CCCCC2)cc1 [compound 4]	–	0.052 µM	–
CC(C)C[C@@H]1CN2C(=NC[C@@H]2C)N1CCCC1CCCCC1 [compound 7]	–	0.53 µM	IC50 (κ-opioid receptor; [3]): 5.44 µM
CC(C)C[C@@H]1CN2C(=NC[C@@H]2C2CCCCC2)N1CCCC1CCCCC1 [compound 9]	–	0.013 µM	IC50 (κ-opioid receptor; [3]): 3.74 µM
C1CCC(CCCN2C3=NC[C@@H](C4CCCCC4)N3C[C@@H]2C2CCCCC2)CC1 [compound 11]	–	0.405 µM	–
C1CCC(CCCN2C3=NC[C@H](C4CCCCC4)N3C[C@@H]2C2CCCCC2)CC1 [compound 12]	–	0.21 µM	–
COc1ccc(CC2CN3C(=NCC3C)N2CCC23CC4CC(CC(C4)C2)C3)cc1 (stereo not drawn) [compound 13]	–	0.235 µM	IC50 (κ-opioid receptor; IC50, 24 individual compounds): 1.52 µM
COc1ccc(CC2CN3C(=NCC3C3CCCCC3)N2CCC23CC4CC(CC(C4)C2)C3)cc1 (stereo not drawn) [compound 15]	–	0.256 µM	IC50 (κ-opioid receptor; IC50, 24 individual compounds): 4.92 µM
COc1ccc(CC2CN3C(=NCC3C)N2CCC23CC4CC(CC(C4)C2)C3)cc1 (stereo not drawn) [compound 16]	–	1.08 µM	IC50 (κ-opioid receptor; IC50, 24 individual compounds): 0.238 µM
CC(C)CC1CN2C(=NCC2C)N1CCC12CC3CC(CC(C3)C1)C2 (stereo not drawn) [compound 19]	–	0.974 µM	IC50 (κ-opioid receptor; IC50, 24 individual compounds): 3.64 µM
CC(C)CC1CN2C(=NCC2C2CCCCC2)N1CCC12CC3CC(CC(C3)C1)C2 (stereo not drawn) [compound 21]	–	0.124 µM	IC50 (κ-opioid receptor; IC50, 24 individual compounds): 1.21 µM

More lines, main results first:

IC50 (σ receptor; [1])	SMILES	IC50 (σ receptor; [2])	other results
0.127 µM	CCN1C2=NC[C@H](Cc3ccccc3)N2C[C@H]1Cc1ccc(Cl)cc1 [Phe/pCl-phe/acetic acid]	–	–
0.215 µM	CCN1C2=NC[C@H](Cc3ccccc3)N2C[C@@H]1Cc1ccc(F)cc1 [Phe/pF-Phe/acetic acid]	–	–
0.242 µM	CCN1C2=NC[C@H](Cc3ccccc3)N2C[C@H]1Cc1ccc(F)cc1 [Phe/pF-phe/acetic acid]	–	–
0.065 µM	CCN1C2=NC[C@H](Cc3ccccc3)N2C[C@@H]1Cc1ccc(I)cc1 [Phe/pI-Phe/acetic acid]	–	–
